Consider four compounds from article PMC7337048 (Journal of Structural Biology: X, 2019).

One assay has as its target Human Arginase-2. The following applies: cited from earlier work; for IC50: Enzyme assay at pH 7.4.
Assay [1] deals with T1, human Arginase-1 (Homo sapiens, UniProt P05089).
T1 sequence (P05089 1-322): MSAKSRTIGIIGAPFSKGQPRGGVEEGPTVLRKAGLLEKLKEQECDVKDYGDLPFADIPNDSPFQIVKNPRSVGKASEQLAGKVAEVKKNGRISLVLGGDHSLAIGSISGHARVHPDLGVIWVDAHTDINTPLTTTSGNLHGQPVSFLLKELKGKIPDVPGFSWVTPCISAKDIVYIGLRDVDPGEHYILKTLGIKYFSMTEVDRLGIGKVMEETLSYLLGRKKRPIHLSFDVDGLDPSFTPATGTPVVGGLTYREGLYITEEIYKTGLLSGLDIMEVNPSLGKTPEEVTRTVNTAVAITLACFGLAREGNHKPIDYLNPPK
Kind of assay: Apparent Michaelis-Menten parameters, colorimetric urea assay. The assay is classed as biochemical. The settings on record: substrate; for Km: read-out: Michaelis constant (KM). As for the experimental part:
Arginase-1 activity was monitored by measurement of the rate of urea formation in a classic colorimetric assay ([Jung et al., 1975], [Zawada et al., 2009]). All components of the assay were diluted in Arginase reaction buffer 1 (8 mM Na2HPO4, 2 mM KH2PO4, pH 7.4, 137 mM NaCl, 2.7 mM KCl, and 0.05% Tween-20) or Arginase reaction buffer 2 (10 mM glycine, pH 9.5, 137 mM NaCl, 2.7 mM KCl, and 0.05% Tween-20). Compounds were either dissolved and diluted in DMSO, followed by further dilution in reaction buffer, or dissolved in MilliQ water (MQ) and diluted in reaction buffer to the desired concentrations. In a clear 384-well plate (cat. no. 781101; Greiner), 10 µL diluted compound and 10 µL of 3 nM (pH 9.5) or 15 nM (pH 7.4) Arginase-1 were combined and incubated for 90 min at room temperature. Then, 10 µL of 15 mM (pH 9.5) or 7.5 mM (pH 7.4) L-arginine (cat. no. 105000250; Acros Organics) was added to the plate, followed by incubation for 30 min. A 1:1 mixture of reagent A (10 mM o-phthaldialdehyde, 0.4% polyoxyethylene (23) lauryl ether (w/v) and 1.8 M sulfuric acid) and reagent B (1.3 mM primaquine diphosphate, 0.4% polyoxyethylene (23) lauryl ether (w/v), 130 mM boric acid and 3.6 M sulfuric acid) was prepared. The enzymatic reaction was stopped by addition of 30 μL of the reagent A + B mixture. After incubation with the reagent mixture for 60 min (pH 9.5) or 120 min (pH 7.4), the absorbance was measured at 450 nm using the EnVision 2104 Multilabel Plate Reader (PerkinElmer, Waltham, MA) (excitation filter P450). The final concentrations of Arginase-1 and L-arginine in the assay were respectively 1 nM and 5 mM at pH 9.5, and 5 nM and 2.5 mM at pH 7.4.

The next assay concerns Arginase-1. The arrangement: method as in Stone et al., 2010, Alarcón et al., 2006, Tsui et al., 2009. The settings on record: differences in pH and temperature; ref Stone et al., 2010, Alarcón et al., 2006, Tsui et al., 2009; cited from earlier work.
Assay [2] has as its target T1, human Arginase-1. Kind of assay: Thermal shift assay. The format is binding. The following applies: 50 μM inhibitor. As for the experimental part: In a 96-well PCR plate (cat no. 652260; Greiner), 10 μL of the enzyme solution was mixed with 5 μL of 200 μM compound dissolved in MQ. […] The plate was sealed with Microseal B Adhesive Sealer (cat. no. MSB1001; Bio-Rad, Hercules, CA) and placed in a CFX96 Real-Time Detection System (Bio-Rad). The temperature was increased from 20 to 95 °C in increments of 0.5 °C during which the SYPRO Orange fluorescence was measured. The resulting datasets were first truncated to contain only the data points that lie between the minimal and maximal fluorescence signals. The remaining data were then fitted to the sigmoidal five-parameter equation (Eq. (2)) ([Schulz et al., 2013]), in which Fmin and Fmax are respectively the minimum and maximum fluorescent signals of the melting transition, T is the temperature, a is the hill slope and c is the asymmetric factor. The melting temperature was then determined as the point of inflection of the melting curve (Eq. […] The reported values were measured in quadruplicate in four independent experiments.(2) […]

For assay [3], the target named is T1, human Arginase-1. Kind of assay: Arginase-1 colorimetric urea assay (inhibition). The following applies: for IC50: read-out: IC50 (nM) (95% CI); for Ki: Cheng-Prusoff equation, read-out: Ki (nM) (95% CI). The format is biochemical. As for the experimental part:
Arginase-1 activity was monitored by measurement of the rate of urea formation in a classic colorimetric assay ([Jung et al., 1975], [Zawada et al., 2009]). […] Compounds were either dissolved and diluted in DMSO, followed by further dilution in reaction buffer, or dissolved in MilliQ water (MQ) and diluted in reaction buffer to the desired concentrations. […] The enzymatic reaction was stopped by addition of 30 μL of the reagent A + B mixture. […] The reported values were measured in quadruplicate in four independent experiments. Dose-response curves were fitted with a four-parameter logistic regression using XLFit (IDBS, Guildford, UK) to determine IC50 values. Graphs for the manuscript were prepared using Prism (GraphPad Software, San Diego, CA).

Assay [4] concerns the target T1, human Arginase-1. Kind of assay: Surface plasmon resonance binding kinetics. The settings on record: for τ (target residence time): τ = 1/kd. As for the experimental part: Binding kinetics of the inhibitors were determined by SPR using a Biacore T200 (GE Healthcare). […] The inhibitors were diluted in running buffer from a stock solution in MQ and were injected in an increasing concentration range of 0.1, 0.316, 1, 3.16 and 10 µM. […] The compound response was subtracted with both the reference channel response and the blank injection.

Assay [5] has as its target T1, human Arginase-1. The following applies: Enzyme assay at pH 7.4; racemic ABH assumed; ref Golebiowski et al., 2013, Van Zandt et al., 2013, Golebiowski et al., 2013, Van Zandt et al., 2019; cited from earlier work.
[6] abbreviates: Enzyme assay at pH 7.5, ref Colleluori and Ash, 2001.

SMILES strings stand for the structures. Several values for one entry are separate records, joined by “and”; a condition that tells them apart may be missing. Equal values may be shown once. Read-outs that look alike come from different tables or passages of the source.

`C[C@H](N)C(=O)N1C[C@H](CCCB(O)O)[C@](N)(C(=O)O)C1` [CB-1158, (3R,4S)-3-amino-1-[(2S)-2-aminopropanoyl]-4-(3-boronopropyl)pyrrolidine-3-carboxylic acid]: the half-maximal inhibitory concentration (IC50) at Human Arginase-2 (ref Oberlies et al., 2009) was 0.296 µM.
`N=C(N)NCCC[C@H](N)C(=O)O` [L-arginine]: on human Arginase-1 [1] (pH 7.4), the “catalytic rate constant (kcat)” value amounted to 57 s⁻¹ and the Km turned out to be 2300 µM. Further, on human Arginase-1 [1] (pH 9.5), the “catalytic rate constant (kcat)” value came out at 460 s⁻¹ and the Michaelis-Menten constant (Km) came out at 4900 µM. Further, in the assay with Arginase-1, the Km was 1900 µM and 2300 µM and 1500 µM; the kcat is 300 s⁻¹ and 190 s⁻¹.
As for `N=C(NO)NCC[C@H](N)C(=O)O` [nor-NOHA, N^ω-hydroxy-nor-L-arginine], the ΔTm at 50 µM is 4.8 °C on human Arginase-1 [2] (pH 7.4) and 4.7 °C on human Arginase-1 [2] (pH 9.5). Further, on Human Arginase-2 (ref Van Zandt et al., 2019), the IC50 was 1.26 µM. Also, the Ki at Human Arginase-2 (setting [6]) was 0.051 µM.
With `N[C@@H](CCCCB(O)O)C(=O)O` [ABH, (2S)-2-amino-6-boronohexanoic acid], the IC50 at human Arginase-1 [3] (pH 7.4, 5 nM Arginase-1, 2.5 mM L-arginine) was 184 nM; at human Arginase-1 [3] (pH 9.5, 1 nM Arginase-1, 5 mM L-arginine), 22 nM; at human Arginase-1 [5], 1.45 to 1.55 µM; on Human Arginase-2 (racemic ABH assumed, ref Golebiowski et al., 2013, Van Zandt et al., 2013, Golebiowski et al., 2013, Van Zandt et al., 2019), 1.92 to 2.55 µM. For the same compound, the Ki is 88 nM at human Arginase-1 [3] (pH 7.4); 11 nM on human Arginase-1 [3] (pH 9.5); 0.25 µM on Human Arginase-2 (setting [6]); 0.0085 µM at Human Arginase-2 (Enzyme assay at pH 9.5, ref Colleluori and Ash, 2001). The “decrease in the Ki on increase of the pH from 7.4 to 9.5” value on human Arginase-1 [3] (pH 7.4 versus pH 9.5) was determined as 8 fold. The results for the Tm at human Arginase-1 [2] (pH 7.4) and at human Arginase-1 [2] (pH 9.5) were 77.4 °C and 80.9 °C, respectively. Also, the ΔTm at 50 µM is 4.5 °C on human Arginase-1 [2] (pH 7.4) and 3.5 °C on human Arginase-1 [2] (pH 9.5). In addition, the Kd is 0.797 µM at human Arginase-1 [4] (pH 7.4) and 0.027 µM at human Arginase-1 [4] (pH 9.5). Further, the ka on human Arginase-1 [4] (pH 7.4) turned out to be 12000 M⁻¹ s⁻¹; at human Arginase-1 [4] (pH 9.5), 5100 M⁻¹ s⁻¹. The kd at human Arginase-1 [4] (pH 7.4) is 0.0099 s⁻¹; at human Arginase-1 [4] (pH 9.5), 0.00014 s⁻¹. The “log(ka)” value on human Arginase-1 [4] (pH 7.4) is listed as 4.09; at human Arginase-1 [4] (pH 9.5) it was 3.71. Besides, the entries for the “log(kd)” value on human Arginase-1 [4] (pH 7.4) and on human Arginase-1 [4] (pH 9.5) were −2.00 and −3.86, respectively. For the same compound, the “τ (target residence time)” value was determined as 100 s at human Arginase-1 [4] (pH 7.4) and 7200 s at human Arginase-1 [4] (pH 9.5). Besides, the “potency lower at pH 7.5 compared to pH 9.5” value in the assay on Human Arginase-2 (pH 7.5 versus pH 9.5, ref Colleluori and Ash, 2001) is listed as around 30 times.
